In patent US20140178433A1, “[…] INCREASED ANTIGENIC MASS” (priority 2012, published 2014):

Columns and labels:
[1] = test system: Leptospira of serogroup Icterohaemorrhagiae; assay: Antigenic mass of fermenter culture by antigen Elisa, serogroup Icterohaemorrhagiae; format: cell-based, L. interrogans (sensu lato); conditions: for Ag U/10^9 cells/ml, at 3 days: different BSA ingredients in EMJH medium, no supplementation; for antigenic mass: average of days 3-5; for Ag. mass, average of days 3-5, Ag U/10^9 cells/ml: EMJH with standard BSA; for Ag. mass, average of days 4-5, Ag U/10^9 cells/ml: standard BSA, total 105 μg/ml; for relative Ag. mass (%), average of days 4-5: relative to non-supplemented = 100
Protocol: (§1) During all fermentation experiments the temperature was controlled at about 29° C. The medium was aerated with headspace airflow, and the dissolved oxygen (pO2) concentration was controlled by automatic variation of the agitation-rate, to maintain a set pO2 concentration. Temperature, pH and pO2 concentration were monitored online, but pH and foam formation were not controlled.
(§2) Supplementation was done either with pure linoleic acid (Sigma Aldrich, >99% pure) as a 10% v/v stock in absolute ethanol (JT Baker). Alternatively, linoleic acid was supplemented by using a BSA that was created with a high level of linoleic acid (high LA BSA). This high LA BSA was used either to replace a standard BSA in EMJH medium, or was used in addition to BSA in the EMJH medium, in which case it was added as a 25% w/v stock solution in sterile water. The high LA BSA or the pure linoleic acid/ethanol supplements were fed to a fermentor over the course of 4 hours, at 0.1-0.2 ml/hour, until the fermentor culture had received a desired total amount of linoleic acid. Different total available levels of linoleic acid have been tested, of between about 5 and 425 μg/ml in the total volume. The fermenter cultures of Leptospira were supplemented at different cell-densities i.e. at early-, mid- or end phase culture. Typical mid-phase cell density was at about 5×10̂8 cells/ml, which was reached during day 2 of the main incubation. Upon supplementation with linoleic acid from the pure linoleic acid in ethanol stock, sometimes a small decrease in pH was noted, which was corrected by applying some NaOH.
(§3) 2004. Royal Tropical Institute, Amsterdam.
An arbitrary number of antigen units is affixed to the sample, for example: 1000 Units/ml.

[2] = test system: Leptospira of serogroup Icterohaemorrhagiae; assay: Biomass (total cell count, Petroff-Hausser counting chamber) of fermenter culture, serogroup Icterohaemorrhagiae; format: cell-based, L. interrogans (sensu lato)
Protocol: as §1
as §2, with “Typical mid-phase cell density was at about 5×10̂8 cells/ml, which was reached during day 2 of the main incubation. Upon supplementation with linoleic acid from the pure linoleic acid in ethanol stock, sometimes a small decrease in pH was noted, which was corrected by applying some NaOH.” left out

[3] = test system: Leptospira from serogroup Sejroe (serovar Hardjo); assay: Antigenic mass of fermenter culture by antigen Elisa, serogroup Sejroe; format: cell-based, L. interrogans (sensu lato); conditions: for Antigenic mass, 2 day average, Ag U/10^9 cells/ml: average of days 5 and 6
Protocol: as §2, §3
(§4) In a next study it was confirmed that the increase in antigenic mass upon supplementation with linoleic acid is a general phenomenon in Leptospira. In several experiments cultures of Leptospira strains from several serogroups were proliferated in fermenters in similar set-ups as before and with a similar supplementation: in EMJH medium with either standard BSA or with high LA BSA; some cultures were further supplemented with 100 μg/ml linoleic acid, from pure linoleic acid in ethanol. Results of analyses of biomass and antigen amount are presented in FIGS. 6-7 (Sejroe), and 8-9 (Grippotyphosa), and are summarised in Table 5.
Some increase in biomass was observed after supplementation, but the increase in antigen amount was much higher. The fermenter was run for 6 days, and scores for these experiments were averaged over days 5 and 6 of the culture.

[4] = test system: Leptospira from serogroup Grippotyphosa; assay: Antigenic mass of fermenter culture by antigen Elisa, serogroup Grippotyphosa; format: cell-based, L. interrogans (sensu lato); conditions: for Antigenic mass, 2 day average, Ag U/10^9 cells/ml: average of days 4 and 5
Protocol: as §2, §3, §4
For serogroup Grippotyphosa the scores were averaged over days 4 and 5 of the culture.

[5] = test system: Leptospira from serogroup Australis (serovar Bratislava); assay: Antigenic mass of fermenter culture by antigen Elisa, serogroup Australis; format: cell-based, L. interrogans (sensu lato)
Protocol: as §2, §3, §4
Similarly, for serogroup Australis (serovar Bratislava), an increase in antigenic mass with 45% was observed; here the low LA BSA medium was used for supplementation.

Leptospira culture = assay: Linoleic acid supplementation of a Leptospira culture, serogroup not stated; format: cell-based
Protocol: as §2

[6] = EMJH with high LA BSA, C18:2 total 25 μg/ml
[7] = EMJH with high LA BSA, C18:2 total 25 μg/ml, serves as reference = 100
[8] = 100 μg/ml added, total 125 μg/ml, relative to high LA BSA culture = 100
[9] = 100 μg/ml pure linoleic acid in ethanol added to high LA BSA medium, C18:2 total 125 μg/ml

## BSA, BovoLep ®: BSA (Bovogen, Australia) recommended for Leptospira culture; standard BSA enriched with a number of vegetable fatty acids
[1]; BSA ingredient in EMJH medium
  effect on antigenic mass: no significant effect
[1]
  Ag U/10^9 cells/ml, at 3 days: 498 Ag U/10^9 cells/ml
[2]; BSA ingredient in EMJH medium
  effect on biomass of Leptospira: did increase the biomass

## high LA BSA: BSA that was created with a high level of linoleic acid
[1]; 25 instead of 5 μg/ml linoleic acid available
  increase of antigenic mass: 124%
[1]; high LA BSA at 1% w/v in EMJH, 25 μg/ml linoleic acid available
  antigenic mass: 1636 Ag U/1×10̂9 cells
[1]; supplemented 50 μg/ml linoleic acid as high LA BSA solution, C18:2 total 55 μg/ml
  Ag. mass, average of days 3-5, Ag U/10^9 cells/ml: 1612 Ag U/10^9 cells/ml
[1]; supplemented 50 μg/ml linoleic acid as high LA BSA, C18:2 total 55 μg/ml, relative to non-supplemented culture = 100
  relative Ag. mass (%), average of days 3-5: 221%
[3]; [6]
  Antigenic mass, 2 day average, Ag U/10^9 cells/ml: 287 Ag U/10^9 cells/ml
[3]; [7]
  relative Ag. mass (%): 100%
[4]; [6]
  Antigenic mass, 2 day average, Ag U/10^9 cells/ml: 5074 Ag U/10^9 cells/ml
[4]; [7]
  relative Ag. mass (%): 100%

## BSA, Millipore: a standard commercial BSA (Millipore)
[1]
  Ag U/10^9 cells/ml, at 3 days: 525 Ag U/10^9 cells/ml

## CCCCCC=CCC=CCCCCCCCC(=O)O [linoleic acid, 9,12-octadecadienoic acid]
[1]; 100 μg/ml pure linoleic acid in ethanol added on day 2 (mid-exponential), EMJH with high LA BSA
  antigenic mass: 1767 Ag. U/1×10̂9 cells
[1]; 100 μg/ml pure linoleic acid in ethanol supplemented at 1 × 10^8 cells/ml (early phase)
  Ag. mass, average of days 4-5, Ag U/10^9 cells/ml: 1783 Ag U/10^9 cells/ml
[1]; 100 μg/ml pure linoleic acid in ethanol supplemented at 5 × 10^8 cells/ml (mid phase)
  Ag. mass, average of days 4-5, Ag U/10^9 cells/ml: 1564 Ag U/10^9 cells/ml
[1]; 100 μg/ml pure linoleic acid in ethanol supplemented at 9 × 10^8 cells/ml (late phase)
  Ag. mass, average of days 4-5, Ag U/10^9 cells/ml: 1656 Ag U/10^9 cells/ml
[1]; 100 μg/ml, early-, mid-, late exponential phase, sampling at 2, 4 and 8 hours after the suppletion
  increase in antigenic mass after supplementation at different phases: acute increase in antigenic mass can be induced at all phases of the Leptospira culture
[1]; 200 μg/ml pure linoleic acid in ethanol, EMJH with high LA BSA
  increase of the antigenic mass: slightly less increase of the antigenic mass compared to that of the 100 μg/ml group
[1]; exemplary increase following application of the method (linoleic acid supplementation)
  increase of the antigenic mass: 121%
[1]; supplemented 75 μg/ml in mid-exponential phase, C18:2 total 80 μg/ml
  Ag. mass, average of days 3-5, Ag U/10^9 cells/ml: 1450 Ag U/10^9 cells/ml
[1]; supplemented 75 μg/ml, C18:2 total 80 μg/ml, relative to non-supplemented culture with standard BSA = 100
  relative Ag. mass (%), average of days 3-5: 199%
[1]; supplemented 150 μg/ml in mid-exponential phase, C18:2 total 155 μg/ml
  Ag. mass, average of days 3-5, Ag U/10^9 cells/ml: 1550 Ag U/10^9 cells/ml
[1]; supplemented 150 μg/ml, C18:2 total 155 μg/ml, relative to non-supplemented culture with standard BSA = 100
  relative Ag. mass (%), average of days 3-5: 213%
[1]; supplemented at 1 × 10^8 cells/ml, 100 μg/ml
  relative Ag. mass (%), average of days 4-5: 226%
[1]; supplemented at 5 × 10^8 cells/ml, 100 μg/ml
  relative Ag. mass (%), average of days 4-5: 198%
[1]; supplemented at 9 × 10^8 cells/ml, 100 μg/ml
  relative Ag. mass (%), average of days 4-5: 210%
[2]; 400 μg/ml pure linoleic acid in ethanol, EMJH with high LA BSA
  toxicity for the bacteria (cell numbers decreased rapidly after supplementation): induced toxicity
[3]; [8]
  relative Ag. mass (%): 284%
[3]; [9]
  Antigenic mass, 2 day average, Ag U/10^9 cells/ml: 814 Ag U/10^9 cells/ml
[3]; supplementation with 100 μg/ml linoleic acid of high LA BSA culture medium
  increase of the antigenic mass: 184%
[4]; [8]
  relative Ag. mass (%): 163%
[4]; [9]
  Antigenic mass, 2 day average, Ag U/10^9 cells/ml: 8286 Ag U/10^9 cells/ml
[4]; supplementation with linoleic acid (100 μg/ml) of high LA BSA medium
  increase of the antigenic mass: 63%
[5]; 100 μg/ml added, total 105 μg/ml, relative to non-supplemented culture = 100
  relative Ag. mass (%): 145%
[5]; 100 μg/ml pure linoleic acid added to low LA BSA medium, C18:2 total 105 μg/ml
  Antigenic mass, 2 day average, Ag U/10^9 cells/ml: 12822 Ag U/10^9 cells/ml
[5]; supplementation of low LA BSA medium
  increase of the antigenic mass: 45%
Leptospira culture; 25 μg linoleic acid available per ml of culture compared to about 5 μg/ml
  increase of the antigenic mass: significant increase of the antigenic mass
Leptospira culture; highest availability level tested, 425 μg/ml, preparation of pure linoleic acid
  toxicity: some toxicity was noticeable for some serovars

## BSA, BovoStar ®: a standard all-purpose BSA from the same manufacturer (Bovogen)
[1]
  Ag U/10^9 cells/ml, at 3 days: 533 Ag U/10^9 cells/ml
